Reference: US20060063786A1 (priority 2002, published 2006)
Read-outs that look alike come from different tables or passages of the source.

Tested on: Pyricularia oryzae
Format: in vivo
Settings: individual active compound, protective, inoculated next day, rated after 6 days

Row | Structure (SMILES) | Efficacy in % of the untreated control (1 ppm in the spray liquor) | Efficacy in % of the untreated control (4 ppm in the spray liquor) | Efficacy in % of the untreated control (0.25 ppm in the spray liquor)
1 | CC1CCN(c2c(-c3c(F)cccc3Cl)c(Cl)nc3ncnn23)CC1 [A] | 0 % of the untreated control | 28 % of the untreated control | 
2 | C[C@H](Nc1c(-c2c(F)cc(F)cc2F)c(Cl)nc2ncnn12)C(F)(F)F [B] | 28 % of the untreated control | 52 % of the untreated control | 
3 | CNC(=O)/C(=N/OC)c1ccccc1CO/N=C(C)/C(=N/OC)C(/C)=N/OC [I (orysastrobin), 2-[2-(2,3-bismethoxyimino-1-methylbutylideneamino-oxymethyl)phenyl]-2-methoxyimino-N-methylacetamide] |  | 28 % of the untreated control | 0 % of the untreated control
4 | CC1CCN(c2c(-c3c(F)cc(F)cc3F)c(Cl)nc3ncnn23)CC1 [II, 5-chloro-7-(4-methylpiperidin-1-yl)-6-(2,4,6-trifluorophenyl)-[1,2,4]triazolo[1,5-a]pyrimidine] | 3 % of the untreated control | 52 % of the untreated control | 
